Test results published in patent publication US11912719B2, “Substituted isoquinolines as rock kinase inhibitors” (Cervello Therapeutics LLC, priority 2018, dated 2024).
Like-named read-outs stand apart in the source and are kept apart here.

Key:
Assay type in all cases: biochemical
[1] = target: T1, cGMP-dependent protein kinase 1 (PKG or PRKG1) (Homo sapiens, UniProt Q13976); test: fluorescence coupling (TR-FRET) enzymatic assay, PKG off-target control; details: 8 nM enzyme, 30 μM ATP, 50 nM Ulight-CREBTide, one hour room temperature
T1 construct: GST; purchased Carna BioSciences 01-142
T1 sequence (Q13976 1-686 isoform Q13976-2): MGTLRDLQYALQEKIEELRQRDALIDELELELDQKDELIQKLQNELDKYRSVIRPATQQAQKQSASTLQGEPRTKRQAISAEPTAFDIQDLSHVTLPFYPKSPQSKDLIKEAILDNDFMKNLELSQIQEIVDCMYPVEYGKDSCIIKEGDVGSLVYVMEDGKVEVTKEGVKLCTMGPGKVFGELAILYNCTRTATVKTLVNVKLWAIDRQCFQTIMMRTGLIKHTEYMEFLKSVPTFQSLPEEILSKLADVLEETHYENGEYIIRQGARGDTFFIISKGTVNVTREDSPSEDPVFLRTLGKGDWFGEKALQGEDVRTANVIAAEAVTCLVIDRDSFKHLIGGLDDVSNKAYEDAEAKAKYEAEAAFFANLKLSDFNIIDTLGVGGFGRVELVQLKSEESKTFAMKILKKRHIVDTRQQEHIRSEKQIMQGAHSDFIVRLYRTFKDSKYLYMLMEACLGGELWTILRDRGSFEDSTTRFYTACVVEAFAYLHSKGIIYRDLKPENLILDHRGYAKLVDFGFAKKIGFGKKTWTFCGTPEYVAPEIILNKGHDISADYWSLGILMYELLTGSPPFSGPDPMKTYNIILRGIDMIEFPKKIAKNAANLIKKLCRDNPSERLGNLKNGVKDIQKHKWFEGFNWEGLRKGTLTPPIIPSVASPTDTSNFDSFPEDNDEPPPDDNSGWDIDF
Procedure: (§1) Dose-response curves for compounds of the present invention were determined using a fluorescence coupling enzymatic assay using purified C-terminal truncated human ROCK1 catalytic domain (amino acids 1-477 of accession number NP_005397.1) fused to GST (Carna BioSciences, Catalog #01-109) and purified C-terminal truncated human ROCK2 enzyme kinase domain (amino acids 1-553 of accession number NP_004841.2) fused to GST BioSciences, Catalog #01-110). In addition, full length cGMP-dependent protein kinase 1 (PKG or PRKG1; amino acids 1-686 of accession number NP_006249.1) fused to GST (Carna BioSciences, Catalog #01-142), full length PKACα (PRKACA; amino acids 1-351 of accession number NP_002721.1) fused to GST (Carna BioSciences, Catalog #01-127), and C-terminal truncated human AKT1 catalytic domain (amino acids 104-480 of accession number NP_005154.1) fused to GST Biosciences, Catalog #01-101) were used as a control to measure any non-desired off-target kinase activity.
(§2) Briefly, compounds of the present invention were solubilized in DMSO and a series of 12, three-fold serial dilutions were made for each compound in 2.5% DMSO. The initial starting concentration for the serial dilutions of each compound was 10 μM or 100 μM. Control samples lacking compound, ROCK enzyme or ATP also were prepared and processed in parallel with compound test samples.
(§3) A 4 μL aliquot of each serial dilution of test compound diluted in H2O with 2.5% DMSO was added to a well containing 4 μL of 10 nM purified N-truncated ROCK1 (4 nM final concentration), 10 nM purified N-truncated ROCK2 enzyme (4 nM final concentration), 1.25 nM AKT1 (0.5 nM final concentration), 25 pM PKACA (10 pM final concentration) or 20 nM PKG (8 nM final concentration), in reaction buffer containing 50 mM Hepes, pH 7.5, 1 mM EGTA, 10 mM MgCl2, 2 mM DTT, and 0.01% Tween 20 (final concentration). To initiate the enzymatic reaction, 2 μL of a solution was added to each well to provide a final concentration of 50 nM Ulight-CREBTide peptide substrate (Perkin Elmer, Catalog #TRF0107) and 4 μM ATP for ROCK1 and AKT1 assays, […] for ROCK2 assays and 30 μM ATP for PKG assays, or 1 μM ATP for PKACA assays. The reaction mixtures were incubated at room temperature for one hour. After one hour, the reaction was stopped by the addition of a 10 solution of an Europium-labelled phospho-CREB (Ser133) antibody (Perkin Elmer, Catalog #TRF0200) in LANCE buffer supplemented with 20 mM EDTA. The stopped reaction mixtures were incubated at room temperature for 90 minutes. The TR-FRET 665/620 ratios were determined using a Clariostar monochromator plate reader instrument (BMG LabTech) in accordance with the manufacturer's instructions. The ICso value for each compound was determined from each dose-response curve using GraphPad Prism 7 software with a sigmodial dose response. Key: A is IC50≤100 nM; B is 100 nM<IC50<1000 nM; C is 1,000<IC50≤10,000 nM; D is IC50>10,000 nM

[2] = target: T2, human AKT1 catalytic domain (Homo sapiens, UniProt P31749); test: fluorescence coupling (TR-FRET) enzymatic assay, AKT1 off-target control; details: 0.5 nM enzyme, 4 μM ATP, 50 nM Ulight-CREBTide, one hour room temperature
T2 construct: GST; purchased Carna BioSciences 01-101
Procedure: as §1, §2, §3

[3] = target: T3, human ROCK2 enzyme kinase domain (Homo sapiens, UniProt O75116); test: fluorescence coupling (TR-FRET) enzymatic assay, ROCK2; details: 4 nM enzyme, 50 nM Ulight-CREBTide, one hour room temperature
T3 construct: GST; purchased Carna BioSciences 01-110
Procedure: as §1, §2, §3

[4] = target: T4, human ROCK1 catalytic domain (Homo sapiens, UniProt Q13464); test: fluorescence coupling (TR-FRET) enzymatic assay, ROCK1
T4 construct: GST; purchased Carna BioSciences 01-109
Procedure: as §2
The reaction mixtures were incubated at room temperature for one hour. After one hour, the reaction was stopped by the addition of a 10 solution of an Europium-labelled phospho-CREB (Ser133) antibody (Perkin Elmer, Catalog #TRF0200) in LANCE buffer supplemented with 20 mM EDTA. The stopped reaction mixtures were incubated at room temperature for 90 minutes. […] The ICso value for each compound was determined from each dose-response curve using GraphPad Prism 7 software with a sigmodial dose response.

[5] = target: T5, PKACα (PRKACA) (Homo sapiens, UniProt P17612); test: fluorescence coupling (TR-FRET) enzymatic assay, PKACA off-target control; details: 10 pM enzyme, 1 μM ATP, 50 nM Ulight-CREBTide, one hour room temperature
T5 construct: GST; purchased Carna BioSciences 01-127
Procedure: as §1, §2, §3

[6] = 4 nM enzyme, 4 μM ATP, 50 nM Ulight-CREBTide, one hour room temperature, read-out: ROCK1 IC50

T3 sequence (O75116 1-553): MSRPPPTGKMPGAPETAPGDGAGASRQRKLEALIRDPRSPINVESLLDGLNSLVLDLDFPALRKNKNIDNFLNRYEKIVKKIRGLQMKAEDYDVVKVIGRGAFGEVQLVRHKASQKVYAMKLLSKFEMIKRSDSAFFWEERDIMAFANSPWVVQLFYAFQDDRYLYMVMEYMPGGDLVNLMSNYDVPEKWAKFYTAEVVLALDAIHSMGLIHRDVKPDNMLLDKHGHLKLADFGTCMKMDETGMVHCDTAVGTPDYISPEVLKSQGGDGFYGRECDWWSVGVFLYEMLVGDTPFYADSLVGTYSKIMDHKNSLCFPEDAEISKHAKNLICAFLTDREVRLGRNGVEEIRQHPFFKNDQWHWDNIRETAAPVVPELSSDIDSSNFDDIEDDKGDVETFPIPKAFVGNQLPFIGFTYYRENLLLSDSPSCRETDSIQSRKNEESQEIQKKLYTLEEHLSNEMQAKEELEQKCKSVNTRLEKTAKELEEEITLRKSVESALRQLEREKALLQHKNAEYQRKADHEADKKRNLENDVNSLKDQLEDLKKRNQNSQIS
T2 sequence (P31749 104-480): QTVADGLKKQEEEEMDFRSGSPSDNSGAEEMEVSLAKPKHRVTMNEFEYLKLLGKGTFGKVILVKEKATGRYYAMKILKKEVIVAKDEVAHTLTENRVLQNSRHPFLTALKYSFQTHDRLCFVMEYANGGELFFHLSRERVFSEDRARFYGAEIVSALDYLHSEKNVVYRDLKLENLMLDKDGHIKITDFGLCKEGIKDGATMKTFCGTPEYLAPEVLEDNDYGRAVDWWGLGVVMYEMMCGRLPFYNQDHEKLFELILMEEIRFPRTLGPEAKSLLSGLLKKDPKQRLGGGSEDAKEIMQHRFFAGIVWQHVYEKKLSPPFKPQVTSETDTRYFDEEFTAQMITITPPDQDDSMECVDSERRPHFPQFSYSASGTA
T4 sequence (Q13464 1-477): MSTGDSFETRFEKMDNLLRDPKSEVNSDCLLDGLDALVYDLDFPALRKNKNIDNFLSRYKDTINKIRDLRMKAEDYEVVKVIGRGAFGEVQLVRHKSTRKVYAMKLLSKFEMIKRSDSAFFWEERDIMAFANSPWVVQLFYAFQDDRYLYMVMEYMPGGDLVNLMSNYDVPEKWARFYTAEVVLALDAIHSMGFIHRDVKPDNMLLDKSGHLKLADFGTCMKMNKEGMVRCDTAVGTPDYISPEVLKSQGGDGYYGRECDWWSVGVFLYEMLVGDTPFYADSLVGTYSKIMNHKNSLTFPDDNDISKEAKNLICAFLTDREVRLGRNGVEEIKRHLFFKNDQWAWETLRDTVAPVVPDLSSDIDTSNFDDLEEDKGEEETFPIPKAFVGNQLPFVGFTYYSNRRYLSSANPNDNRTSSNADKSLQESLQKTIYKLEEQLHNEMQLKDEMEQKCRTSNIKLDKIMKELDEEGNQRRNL

Compound | IC50 [1] | IC50 [2] | IC50 [3] | IC50 [4, 6] | IC50 [5] | IC50 [4]
Cc1cccc2c1CCN2S(=O)(=O)c1cccc2c(=O)[nH]ccc12 [Example 1, 5-((4-Methylindolin-1-yl)sulfonyl)isoquinolin-1 (2H)-one] | > 10 µM | > 10 µM | 1 to 10 µM | 1 to 10 µM | > 10 µM | 
O=c1[nH]ccc2c(S(=O)(=O)N3CCc4cc(O)ccc43)cccc12 [Example 2, 5-((5-Hydroxyindolin-1-yl)sulfonyl)isoquinolin-1 (2H)-one] | > 10 µM | > 10 µM | > 10 µM | > 10 µM | > 10 µM | 
O=c1[nH]ccc2c(S(=O)(=O)N3CCc4ccccc43)cccc12 [Example 3, 5-(Indolin-1-ylsulfonyl)isoquinolin-1 (2H)-one] | > 10 µM | > 10 µM | 1 to 10 µM | 1 to 10 µM | > 10 µM | 
O=c1[nH]ccc2c(S(=O)(=O)N3CCc4ccc(Cl)cc43)cccc12 [Example 4, 5-((6-Chloroindolin-1-yl)sulfonyl)isoquinolin-1 (2H)-one] | > 10 µM | > 10 µM | 0.1 to 1 µM | 0.1 to 1 µM | > 10 µM | 
O=c1[nH]ccc2c(S(=O)(=O)N3CCc4ccc(F)cc43)cccc12 [Example 5, 5-((6-Fluoroindolin-1-yl)sulfonyl)isoquinolin-1 (2H)-one] | > 10 µM | > 10 µM | 1 to 10 µM | 1 to 10 µM | > 10 µM | 
Cc1ccc2c(c1)N(S(=O)(=O)c1cccc3c(=O)[nH]ccc13)CC2 [Example 6, 5-((6-Methylindolin-1-yl)sulfonyl)isoquinolin-1 (2H)-one] | > 10 µM | > 10 µM | 0.1 to 1 µM | 1 to 10 µM | > 10 µM | 
O=c1[nH]ccc2c(S(=O)(=O)N3CCc4c(CO)cccc43)cccc12 [Example 7, 5-((4-(Hydroxymethyl)indolin-1-yl)sulfonyl)isoquinolin-1 (2H)-one] | > 10 µM | > 10 µM | 1 to 10 µM |  | > 10 µM | 1 to 10 µM
O=c1[nH]ccc2c(S(=O)(=O)N3CCc4c3cccc4C(F)(F)F)cccc12 [Example 8, 5-((4-(Trifluoromethyl)indolin-1-yl)sulfonyl)isoquinolin-1 (2H)-one] | > 10 µM | > 10 µM | > 10 µM | > 10 µM | > 10 µM | 
O=c1[nH]ccc2c(S(=O)(=O)N3CCc4c(C5CC5)cccc43)cccc12 [Example 9, 5-((4-Cyclopropylindolin-1-yl)sulfonyl)isoquinolin-1 (2H)-one] | > 10 µM | > 10 µM | > 10 µM | > 10 µM | > 10 µM | 
CCc1cccc2c1CCN2S(=O)(=O)c1cccc2c(=O)[nH]ccc12 [Example 10, 5-((4-ethylindolin-1-yl)sulfonyl)isoquinolin-1 (2H)-one] | > 10 µM | > 10 µM | > 10 µM | > 10 µM | > 10 µM | 
CC(O)c1cccc2c1CCN2S(=O)(=O)c1cccc2c(=O)[nH]ccc12 (centres unmarked) [Example 11, 5-((4-(1-Hydroxyethyl)indolin-1-yl)sulfonyl)isoquinolin-1 (2H)-one] | > 10 µM | > 10 µM | 1 to 10 µM | 1 to 10 µM | > 10 µM | 
CC1(C)CN(S(=O)(=O)c2cccc3c(=O)[nH]ccc23)c2ccccc21 [Example 12, 5-((3,3-Dimethylindolin-1-yl)sulfonyl)isoquinolin-1 (2H)-one] | > 10 µM | > 10 µM | > 10 µM | > 10 µM | > 10 µM | 
CC1CN(S(=O)(=O)c2cccc3c(=O)[nH]ccc23)c2ccccc21 (centres unmarked) [Example 13, 5-((3-Methylindolin-1-yl)sulfonyl)isoquinolin-1 (2H)-one] | > 10 µM | > 10 µM | > 10 µM | > 10 µM | > 10 µM | 
CC(C)c1cccc2c1CCN2S(=O)(=O)c1cccc2c(=O)[nH]ccc12 [Example 14, 5-((4-Isopropylindolin-1-yl)sulfonyl)isoquinolin-1 (2H)-one] | > 10 µM | > 10 µM | > 10 µM | > 10 µM | > 10 µM | 
N#Cc1ccc2c(c1)N(S(=O)(=O)c1cccc3c(=O)[nH]ccc13)CC2 [Example 15, 1-((1-Oxo-1,2-dihydroisoquinolin-5-yl)sulfonyl)indoline-6-carbonitrile] | > 10 µM | > 10 µM | < 0.1 µM | 0.1 to 1 µM | > 10 µM | 
O=c1[nH]ccc2c(S(=O)(=O)N3CCc4c(Cl)cc(Cl)cc43)cccc12 [Example 16, 5-((4,6-Dichloroindolin-1-yl)sulfonyl)isoquinolin-1 (2H)-one] | > 10 µM | > 10 µM | 1 to 10 µM | 1 to 10 µM | > 10 µM | 
N#Cc1cc(C2CC2)c2c(c1)N(S(=O)(=O)c1cccc3c(=O)[nH]ccc13)CC2 [Example 17] | > 10 µM | > 10 µM | 0.1 to 1 µM | 0.1 to 1 µM | > 10 µM | 
Cc1cc(C#N)cc2c1CCN2S(=O)(=O)c1cccc2c(=O)[nH]ccc12 [Example 18] | > 10 µM | > 10 µM | 0.1 to 1 µM | 0.1 to 1 µM | > 10 µM | 
O=c1[nH]ccc2c(S(=O)(=O)N3CCc4ccc(Cl)cc43)cc(Cl)cc12 [Example 19, 7-Chloro-5-((6-chloroindolin-1-yl)sulfonyl)isoquinolin-1 (2H)-one] | > 10 µM | > 10 µM | > 10 µM | > 10 µM | > 10 µM | 
